Measured values: PubChem BioAssay (NCI)
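Each compound was tested at five concentrations against cells in 96-well plates for 48 hours. GI50 = concentration required for 50% inhibition of growth. TGI marks complete inhibition of growth.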

Key:
Assay in all cases: inhibition of tumour cell growth, NCI panel, 48 h
[1] = test system: SK-MEL-2 melanoma
[2] = test system: OVCAR-3 ovarian
[3] = test system: NCI/ADR-RES ovarian
[4] = test system: KM12 colon
[5] = test system: MALME-3M melanoma
[6] = test system: K-562 leukemia
[7] = test system: SK-OV-3 ovarian
[8] = test system: UO-31 renal
[9] = test system: COLO 205 colon
[10] = test system: OVCAR-8 ovarian

Structure (SMILES): C1CCC(CC2CCC(NC3=NCCO3)CC2)CC1 (stereo not given)
- TGI [1]: 32.4 µM
- TGI [2]: 30.6 µM
- TGI [3]: 37.3 µM
- TGI [4]: 32.7 µM
- TGI [5]: 29.7 µM
- TGI [6]: 32.9 µM
- TGI [7]: 38.4 µM
- TGI [8]: 35.9 µM
- TGI [9]: 28.2 µM
- TGI [10]: 30.9 µM

Structure (SMILES): CCOc1c2c(cc3c1C(=O)c1c(OC)cccc1C3=O)C=C(OC)CC2
- TGI [1]: > 25 µM
- TGI [2]: > 25 µM
- TGI [3]: > 25 µM
- TGI [4]: > 25 µM
- TGI [5]: > 25 µM
- TGI [6]: > 25 µM
- TGI [7]: > 25 µM
- TGI [8]: > 25 µM
- TGI [9]: > 25 µM
- TGI [10]: > 25 µM

Structure (SMILES): Cc1csc(NCc2ccc(Cl)cc2)n1
- TGI [1]: > 100 µM
- TGI [2]: > 100 µM
- TGI [3]: > 100 µM
- TGI [4]: > 100 µM
- TGI [5]: > 100 µM
- TGI [6]: > 100 µM
- TGI [7]: > 100 µM
- TGI [8]: > 100 µM
- TGI [9]: 63.1 µM
- TGI [10]: > 100 µM

Structure (SMILES): O=C(Cn1c(=O)oc2ccccc21)N(c1ccccc1)c1ccccc1
- TGI [1]: > 100 µM
- TGI [2]: > 100 µM
- TGI [3]: > 100 µM
- TGI [4]: > 100 µM
- TGI [5]: > 100 µM
- TGI [6]: > 100 µM
- TGI [7]: > 100 µM
- TGI [8]: > 100 µM
- TGI [9]: > 100 µM
- TGI [10]: > 100 µM

Structure (SMILES): C=CCCCCCCCCCOC1C=CC(O)C(CO)O1 (stereo not given)
- TGI [1]: > 100 µM
- TGI [2]: > 100 µM
- TGI [3]: > 100 µM
- TGI [4]: 85.1 µM
- TGI [5]: 73.3 µM
- TGI [6]: 53.3 µM
- TGI [7]: > 100 µM
- TGI [8]: > 100 µM
- TGI [9]: > 100 µM
- TGI [10]: 37.4 µM

Structure (SMILES): COc1ccc(/C=N/n2c(-c3ccccc3)n[nH]c2=O)c(OC)c1
- TGI [1]: > 100 µM
- TGI [2]: > 100 µM
- TGI [3]: > 73.9 µM
- TGI [4]: > 100 µM
- TGI [5]: > 100 µM
- TGI [6]: > 100 µM
- TGI [7]: > 74.6 µM
- TGI [8]: > 70 µM
- TGI [9]: > 100 µM
- TGI [10]: > 87.6 µM

Structure (SMILES): Cc1[nH]c2c(C)c3c([nH]c4ccc(Cl)cc43)c(C)c2c(=O)c1C
- TGI [1]: > 100 µM
- TGI [2]: 18.9 µM
- TGI [3]: 60.5 µM
- TGI [4]: 77.2 µM
- TGI [5]: 72.8 µM
- TGI [6]: > 100 µM
- TGI [7]: > 73.8 µM
- TGI [8]: 38.9 µM
- TGI [9]: 18.8 µM
- TGI [10]: 17.7 µM

Structure (SMILES): CCc1nnc2sc(-c3ccc(-c4ccccc4[N+](=O)[O-])o3)nn12
- TGI [1]: 95.7 µM
- TGI [2]: > 100 µM
- TGI [3]: 75.1 µM
- TGI [4]: > 100 µM
- TGI [5]: > 100 µM
- TGI [6]: > 100 µM
- TGI [7]: > 100 µM
- TGI [8]: > 100 µM
- TGI [9]: > 100 µM
- TGI [10]: > 100 µM

Structure (SMILES): O=C(c1ccccc1)c1nn(-c2cccc(Cl)c2)c2nc3nc(-c4ccccc4)cc(=O)n3nc12
- GI50 [1]: > 25 µM
- TGI [1]: > 25 µM
- GI50 [2]: > 25 µM
- TGI [2]: > 25 µM
- GI50 [3]: > 25 µM
- TGI [3]: > 25 µM
- GI50 [4]: > 25 µM
- TGI [4]: > 25 µM
- GI50 [5]: > 25 µM
- TGI [5]: > 25 µM
- GI50 [6]: > 25 µM
- TGI [6]: > 25 µM
- GI50 [7]: > 25 µM
- TGI [7]: > 25 µM
- GI50 [8]: > 25 µM
- TGI [8]: > 25 µM
- GI50 [9]: > 25 µM
- TGI [9]: > 25 µM
- GI50 [10]: > 25 µM
- TGI [10]: > 25 µM

Structure (SMILES): CC(C)=CC(=O)c1[nH]c2ccccc2c1CC(=O)NCCc1cnc[nH]1
- TGI [1]: > 100 µM
- TGI [2]: > 100 µM
- TGI [3]: > 100 µM
- TGI [4]: > 100 µM
- TGI [5]: > 100 µM
- TGI [6]: > 100 µM
- TGI [7]: > 100 µM
- TGI [8]: > 100 µM
- TGI [9]: > 100 µM
- TGI [10]: > 100 µM

Structure (SMILES): COc1ccc2nc(-c3ccc(N)cc3)sc2c1
- TGI [1]: > 100 µM
- TGI [2]: > 100 µM
- TGI [3]: > 100 µM
- TGI [4]: > 100 µM
- TGI [5]: > 100 µM
- TGI [6]: > 100 µM
- TGI [7]: > 100 µM
- TGI [8]: > 100 µM
- TGI [9]: > 100 µM
- TGI [10]: > 100 µM

Structure (SMILES): c1ccc(-c2cc(-c3ccccc3)nc(-c3ccncc3)c2)cc1
- TGI [1]: > 100 µM
- TGI [2]: > 100 µM
- TGI [3]: > 100 µM
- TGI [4]: > 100 µM
- TGI [5]: > 100 µM
- TGI [6]: > 100 µM
- TGI [7]: > 100 µM
- TGI [8]: > 100 µM
- TGI [9]: > 100 µM
- TGI [10]: > 100 µM

Structure (SMILES): CC(C)C1OC(=O)C(Cc2ccccc2)N(C)C(=O)C(C(C)C)OC(=O)C(Cc2ccccc2)N(C)C(=O)C(C(C)C)OC(=O)C(Cc2ccccc2)N(C)C1=O (stereo not given)
- TGI [1]: 1.36 µM
- TGI [2]: 1.79 µM
- TGI [3]: 2.36 µM
- TGI [4]: 1.33 µM
- TGI [5]: 1.29 µM
- TGI [6]: 3.52 µM
- TGI [7]: 2.16 µM
- TGI [8]: 1.27 µM
- TGI [9]: 1.95 µM
- TGI [10]: 1.97 µM

Structure (SMILES): CSC(SC)=C(C#N)C(=O)Nc1ccc(Cl)cc1
- TGI [1]: > 100 µM
- TGI [2]: > 100 µM
- TGI [3]: > 100 µM
- TGI [4]: > 100 µM
- TGI [5]: > 100 µM
- TGI [6]: > 100 µM
- TGI [7]: > 100 µM
- TGI [8]: 65.2 µM
- TGI [9]: 35.9 µM
- TGI [10]: > 100 µM

Structure (SMILES): Cc1nc2nnc(CCCCCCCCc3nnc4nc(C)[nH]n34)n2[nH]1
- TGI [1]: > 100 µM
- TGI [2]: > 100 µM
- TGI [3]: > 100 µM
- TGI [4]: > 100 µM
- TGI [5]: > 100 µM
- TGI [6]: > 100 µM
- TGI [7]: > 100 µM
- TGI [8]: > 100 µM
- TGI [9]: > 100 µM
- TGI [10]: > 100 µM

Structure (SMILES): Cc1cccc(NC(=S)NNC(=O)c2cc(-c3ccccc3)nc3ccccc23)c1
- TGI [1]: 45.8 µM
- TGI [2]: 66.5 µM
- TGI [3]: > 100 µM
- TGI [4]: > 100 µM
- TGI [5]: 83.8 µM
- TGI [6]: > 100 µM
- TGI [7]: 59.2 µM
- TGI [8]: 57.1 µM
- TGI [9]: 40.1 µM
- TGI [10]: > 100 µM

Structure (SMILES): O=C1OCOC2(CCCC2)C1c1ccccc1 (stereo not given)
- TGI [1]: > 100 µM
- TGI [2]: > 100 µM
- TGI [3]: > 100 µM
- TGI [4]: > 100 µM
- TGI [5]: > 100 µM
- TGI [6]: > 100 µM
- TGI [7]: > 100 µM
- TGI [8]: > 100 µM
- TGI [9]: > 100 µM
- TGI [10]: > 100 µM
